Key:
complement activation = details: relative to compstatin amidated at the C-terminus; published data; cited from earlier work
C3 convertase (CVF:Bb) = C3 convertase (CVF:Bb) (Homo sapiens, UniProt P00751); test: C3 Convertase Assay (biochemical assay, compound contacted with CVF:Bb, then C3 substrate added)
Text: Various technologies are available for assessing provided compounds, compositions and methods. In some embodiments, a useful assay is an assay described below. […] In some embodiments, a purified, isolated or enriched C3 convertase is utilized. […] In some embodiments, a compound was first contacted with CVF:Bb, followed by addition of C3 substrates. As those skilled in the art will appreciate, products C3a and/or C3b could be detected through a number of technologies (e.g., antibodies specific for a product) and reduction of levels of one or both of them could be utilized to assess inhibition.

[1] = tested on: complement alternative pathway; test: Wieslab AP assay (Complement Alternative Pathway ELISA, human serum as source of complement); type: biochemical; details: read-out: B: Wieslab AP IC50 (nM) (alternative pathway)
Text: Among other things, the present disclosure provides compounds and compositions that can modulate complement activation. In some embodiments, provided technologies inhibit complement activation. In some embodiments, provided technologies inhibit C3 convertase. Various technologies are available for assessing provided compounds, compositions and methods. In some embodiments, a useful assay is an assay described below. In some embodiments, IC50 of a provided compound measured in an assay is about or no more than about 1000, 900, 800, 700, 600, 500, 400, 300, 200, 100, 90, 80, 70, 60, 50, 40, 30, 20, or 10 nM. In some embodiments, a useful assay is a biochemical assay assessing inhibition of C3 convertase activity by a provided compound. In some embodiments, a purified, isolated or enriched C3 convertase is utilized. In some embodiments, CVF:Bb (e.g., assembled from three components Cobra Venom Factor (CVF), Complement Factor B (FB) and Complement Factor D (FD)) was utilized (certain results are presented as “A” in the Table below). In some embodiments, a compound was first contacted with CVF:Bb, followed by addition of C3 substrates. As those skilled in the art will appreciate, products C3a and/or C3b could be detected through a number of technologies (e.g., antibodies specific for a product) and reduction of levels of one or both of them could be utilized to assess inhibition. In some embodiments, a useful assay is Wieslab© assay (certain results are presented as “B” in the Table below).
In some embodiments, classical and alternative pathway activity are assessed using Wieslab© technologies. In some embodiments, Wieslab© assay were performed with a commercially available kit, using a protocol adapted for measurement of complement inhibitory activity of compounds. In some embodiments, human serum was utilized as a positive control. In some embodiments, human serum serves as a source of complement proteins, and inhibition of complement activity of a serum by various compounds were assessed. In some embodiments, a kit is COMPL AP330, Complement Alternative Pathway ELISA, Eagle Biosciences. In some embodiments, a kit is COMPL CP310, Complement Classical Pathway ELISA, Eagle Biosciences. In some embodiments, kits are available from VWR (102994-104, Complement Alternative pathway ELISA, Eagle Biosciences, Inc.; 102994-106, Complement Classical pathway ELISA, Eagle Biosciences, Inc.).
In some embodiments, a useful procedure described below is utilized. • 1. Make fresh test compound stock at 1 mM. • 2. Test compound serial dilution: dilute the stock to working stock concentrations. Add DMSO to dilution buffer using same dilution factor for the working stock so the composition of all the serial diluted stock is the same. In some embodiments, stock was serial diluted from the working stock 1:4 (for classical pathway) or 1:2 (for alternative pathway) using new diluted dilution buffers. • 3. Dilute positive controls using the dilution buffer provided with the assay kit to 2× of the final conc., for classical pathway, 50.5×. Positive control is human serum, which contains complement proteins. • 4. Add 125 μL of test compound solution and 125 μL of diluted positive control to a 96 well polypropylene plate, mix gently and cover the plate and incubate at 4° C. for 30 min. • 5. Add 100 μL/well to the assay plate and incubate at 37° C. for 1 h. Typically, controls in the assay plate, for example, buffer alone for negative control, positive control alone to verify the complement activity of the reagent. • 6. Wash plate and add 100 μL/well conjugate, incubate at room temperature for 30 min. • 7. Wash plate and add 100 μL/well substrate, then incubate at room temperature for approximately 30 minutes. Periodically monitor the absorbance at 405 nm (OD405) in the positive control alone well. • 8. Once the OD405 is >1, read the whole plate immediately. Or stop the reaction by adding 100 μL of 5 mM EDTA to each well and read within 60 minutes.

C3 convertase (CVF:Bb), sequence (P00751 260-764 limits assumed): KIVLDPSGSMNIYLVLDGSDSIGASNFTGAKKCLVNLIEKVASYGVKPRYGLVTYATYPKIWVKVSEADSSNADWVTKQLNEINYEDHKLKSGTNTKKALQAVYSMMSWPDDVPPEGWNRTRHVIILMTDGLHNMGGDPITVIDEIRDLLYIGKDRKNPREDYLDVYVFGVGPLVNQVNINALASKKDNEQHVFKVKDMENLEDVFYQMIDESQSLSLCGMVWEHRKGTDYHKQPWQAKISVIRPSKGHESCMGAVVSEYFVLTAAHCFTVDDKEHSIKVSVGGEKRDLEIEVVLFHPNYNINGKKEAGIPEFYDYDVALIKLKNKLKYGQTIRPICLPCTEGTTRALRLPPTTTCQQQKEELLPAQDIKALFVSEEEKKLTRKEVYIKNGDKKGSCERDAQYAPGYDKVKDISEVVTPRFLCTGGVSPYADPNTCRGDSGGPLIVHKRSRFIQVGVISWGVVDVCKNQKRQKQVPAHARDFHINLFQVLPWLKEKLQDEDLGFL

| Compound | Activity over compstatin (complement activation) [xmore] | IC50 (C3 convertase (CVF:Bb)) [nM] | IC50 [1] [nM] |
| --- | --- | --- | --- |
| Ac-ICV(Bpa)QDWGAHRCT-CONH2 [Ac-V4(Bpa)/H9A] | 86 | – | – |
| Ac-ICVDhtQDWGAHRCT-COOH [Ac-V4Dht/H9A-OH] | 5 | – | – |
| Ac-ICV(2-Nal)QDWGAHRCT-COOH [Ac V4(2-Nal)/H9A-OH] | 38 | – | – |
| H-GICV(6fW)QD(6fW)GAHRCTN-COOH [+G/V4(6fW)/W7(6fW)H9A + N-OH] | 126 | – | – |
| Ac-ICV(Bpa)QDWGAHRCT-COOH [Ac-V4(Bpa)/H9A-OH] | 49 | – | – |
| Ac-ICV(2-Igl)QDWGAHRCT-CONH2 [Ac-V42Igl/H9A] | 39 | – | – |
| COc1cc(C)c2[nH]ccc2c1CN1CCN(CCO)C[C@H]1c1ccc(C(=O)O)cc1 | – | 350 | 128 |
| COc1cc(C)c2[nH]ccc2c1CN1CCN(CCCF)CC1c1ccc(C(=O)O)cc1 (stereo not shown) | – | 119 | 153 |
| C=CCN1CCN(Cc2c(OC)cc(C)c3[nH]ccc23)C(c2ccc(C(=O)O)cc2)C1 (stereo not shown) | – | 250 | 1490 |
| Ac-ICVWQDWGAHRCdT-COOH [Ac-V4W/H9A/T13dT-OH] | 55 | – | – |
| COc1cc(C)c2[nH]ccc2c1CN1CCN(CCC(F)(F)F)C[C@H]1c1ccc(C(=O)O)nc1 | – | 96 | 34 |
| Ac-ICV(2-Igl)QDWGAHRCT-COOH [Ac-V42Igl/H9A-OH] | 37 | – | – |
| COc1cc(C)c2[nH]ccc2c1CN1CC(=O)N(C)C[C@H]1c1ccc(C(=O)O)cc1 | – | 6400 | 1000 |
| Ac-ICWVQDWGHHRCT-CONH2 (Ac-ICWVQDWGHHRCT-NH2; not fully specified (bridges); printed as Ac-ICWVQDWGHHRCT-CONH2; cysteine pairing not given here) [Ac-compstatin, "compstatin analogs useful in the present disclosure"] | 3 | – | – |
| Ac-ICVWQDWGAHRCT-CONH2 (Ac-ICVWQDWGAHRCT-NH2; cysteine pairing not given here) [Ac-V4W/H9A, "compstatin analogs useful in the present disclosure"] | 45 | – | – |
| Ac-ICV(2-Nal)QDWGAHRCT-CONH2 [Ac-V4(2-Nal)/H9A] | 99 | – | – |
| COc1cc(C)c2[nH]ccc2c1CN1CCN(C2CC2)CC1c1ccc(C(=O)O)cc1 (stereo not shown) | – | 141 | 29 |
| COc1cc(C)c2[nH]ccc2c1CN1CCN(CCF)CC1c1ccc(C(=O)O)cc1 (stereo not shown) | – | 65 | 107 |
| Ac-ICV(1-Nal)QDWGAHRCT-COOH [Ac V4(1-Nal)/H9A-OH] | 30 | – | – |
| COc1cc(C)c2[nH]ccc2c1CN1CCN(C(C)C(F)F)C[C@H]1c1ccc(C(=O)O)cc1 (stereo partly shown) | – | 228 | 230 |
| COc1cc(C)c2[nH]ccc2c1CN1CCN(CCC(F)(F)F)C[C@@H]1c1ccc(C(=O)O)nc1 | – | 6440 | > 10000 |
| Ac-ICVYQDWGAHRCT-CONH2 [Ac-V4Y/H9A] | 14 | – | – |
| COc1cc(C)c2[nH]ccc2c1CN1CCN(CCC(F)F)C[C@H]1c1ccc(C(=O)O)cc1 | – | 27 | 27 |
| Ac-ICVWQD(5fW)GAHRCT-CONH2 [Ac-V4W/W7(5fW)/H9A] | 121 | – | – |

Source: patent publication US20240360103A1, “COMPLEMENT INHIBITION” (Apellis Pharmaceuticals, Inc., priority 2021, published 2024)
